Where a name gives a salt, the structure may show the parent alone. Read-outs that look alike come from different tables or passages of the source.
Test system: compound-treated mice
Assay: Neuropharmacological assay (SmartCube): behavioral activity signature and minimal effective dose
Assay type: in vivo
Conditions: for minimal effective dose: Mus musculus, ip, MED = dose having 50% or more total activity; for AD: ADHD (probability of activity signature) / AG: analgesic (probability of activity signature) / AX: anxiolytic (probability of activity signature) / CE: cognitive enhancer (probability of activity signature) / DP: anti-depressant (probability of activity signature) / MS: mood stabilizer (probability of activity signature) / PS: anti-psychotic (probability of activity signature) / SD: sedative hypnotic (probability of activity signature) / UN: uncharacterized CNS activity (probability of activity signature): i.p. 15 min before test, most efficacious dose(s)
How it was run: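 Video-recorded behavior is compared algorithmically against a reference-compound database, yielding class probabilities (best dose reported). Compounds given i.p. in NMP/PEG/propylene glycol 15 min pre-test at 3 doses; potency as MED, the dose (mpk, range usually 0.3–30) reaching ≥50% total activity.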

[1] = read-out: Potency: minimal effective dose (MED)
[2] = read-out: Potency: minimal effective dose (MED), binned

| SMILES | minimal effective dose [1] [mg/kg] | AD: ADHD (probability of activity signature) | AG: analgesic (probability of activity signature) | AX: anxiolytic (probability of activity signature) | CE: cognitive enhancer (probability of activity signature) | DP: anti-depressant (probability of activity signature) | MS: mood stabilizer (probability of activity signature) | PS: anti-psychotic (probability of activity signature) | SD: sedative hypnotic (probability of activity signature) | UN: uncharacterized CNS activity (probability of activity signature) | minimal effective dose [2] [mg/kg] |
| --- | --- | --- | --- | --- | --- | --- | --- | --- | --- | --- | --- |
| Cc1cccc2c1C(N)COC2.Cl (stereo not drawn) [Example 21, 5-Methylisochroman-4-amine hydrochloride] | 3 to 10 | + (LOQ ≤ + <5%) | ++ (5% ≤ ++ <25%) | ++ (5% ≤ ++ <25%) | ++ (5% ≤ ++ <25%) | ++ (5% ≤ ++ <25%) | + (LOQ ≤ + <5%) | ++ (5% ≤ ++ <25%) | ++ (5% ≤ ++ <25%) | +++ (25% ≤ +++ <50%) | – |
| CCCN[C@@H]1COCc2ccccc21.Cl [Example 262] | – | + (LOQ ≤ + <5%) | + (LOQ ≤ + <5%) | + (LOQ ≤ + <5%) | + (LOQ ≤ + <5%) | ++ (5% ≤ ++ <25%) | + (LOQ ≤ + <5%) | + (LOQ ≤ + <5%) | ++ (5% ≤ ++ <25%) | ++ (5% ≤ ++ <25%) | 10 to 30 |
| CC(C)[C@@H]1OCc2ccccc2[C@@H]1N (relative stereo) [Example 256, cis-3-Isopropylisochroman-4-amine hydrochloride] | – | ++ (5% ≤ ++ <25%) | + (LOQ ≤ + <5%) | ++ (5% ≤ ++ <25%) | + (LOQ ≤ + <5%) | + (LOQ ≤ + <5%) | ++ (5% ≤ ++ <25%) | +++ (25% ≤ +++ <50%) | ++ (5% ≤ ++ <25%) | ++ (5% ≤ ++ <25%) | 3 to 10 |
| CC[C@H]1OCc2ccccc2[C@@H]1N.Cl (single isomer, unassigned) [Example 199] | – | + (LOQ ≤ + <5%) | ++ (5% ≤ ++ <25%) | ++++ (50% ≤ ++++) | ++ (5% ≤ ++ <25%) | + (LOQ ≤ + <5%) | + (LOQ ≤ + <5%) | ++ (5% ≤ ++ <25%) | ++ (5% ≤ ++ <25%) | ++++ (50% ≤ ++++) | < 3 |
| Cc1cccc2c1[C@H](N)CO[C@@H]2C [Example 226] | – | + (LOQ ≤ + <5%) | + (LOQ ≤ + <5%) | ++ (5% ≤ ++ <25%) | ++ (5% ≤ ++ <25%) | ++ (5% ≤ ++ <25%) | + (LOQ ≤ + <5%) | +++ (25% ≤ +++ <50%) | + (LOQ ≤ + <5%) | ++ (5% ≤ ++ <25%) | 10 to 30 |
| C[C@@H]1OC[C@@H](N)c2cc(Cl)ccc21.Cl [Example 204] | – | + (LOQ ≤ + <5%) | + (LOQ ≤ + <5%) | ++ (5% ≤ ++ <25%) | ++ (5% ≤ ++ <25%) | + (LOQ ≤ + <5%) | + (LOQ ≤ + <5%) | ++ (5% ≤ ++ <25%) | ++ (5% ≤ ++ <25%) | ++++ (50% ≤ ++++) | 3 to 10 |
| Cl.NC1COCc2c(Cl)cccc21 (stereo not drawn) [Example 5] | < 3 | + (LOQ ≤ + <5%) | ++ (5% ≤ ++ <25%) | ++ (5% ≤ ++ <25%) | ++ (5% ≤ ++ <25%) | ++ (5% ≤ ++ <25%) | + (LOQ ≤ + <5%) | ++ (5% ≤ ++ <25%) | ++ (5% ≤ ++ <25%) | +++ (25% ≤ +++ <50%) | – |
| CC[C@@H]1OCc2ccc(F)cc2[C@H]1N [Example 182] | – | + (LOQ ≤ + <5%) | + (LOQ ≤ + <5%) | ++ (5% ≤ ++ <25%) | ++ (5% ≤ ++ <25%) | ++ (5% ≤ ++ <25%) | + (LOQ ≤ + <5%) | +++ (25% ≤ +++ <50%) | + (LOQ ≤ + <5%) | ++++ (50% ≤ ++++) | < 3 |
| CCCN[C@@H]1c2ccccc2CO[C@@H]1C.Cl [Example 269] | – | + (LOQ ≤ + <5%) | + (LOQ ≤ + <5%) | + (LOQ ≤ + <5%) | + (LOQ ≤ + <5%) | ++ (5% ≤ ++ <25%) | ++ (5% ≤ ++ <25%) | + (LOQ ≤ + <5%) | ++ (5% ≤ ++ <25%) | ++ (5% ≤ ++ <25%) | 3 to 10 |
| Cc1ccc(Cl)c2c1[C@H](N)[C@H](C)OC2.Cl [Example 225] | – | + (LOQ ≤ + <5%) | ++ (5% ≤ ++ <25%) | ++ (5% ≤ ++ <25%) | ++ (5% ≤ ++ <25%) | ++ (5% ≤ ++ <25%) | + (LOQ ≤ + <5%) | ++ (5% ≤ ++ <25%) | ++ (5% ≤ ++ <25%) | ++++ (50% ≤ ++++) | 3 to 10 |
| CN[C@H]1COCc2c(Cl)cccc21 (single isomer, unassigned) [Example 150] | 3 to 10 | + (LOQ ≤ + <5%) | ++ (5% ≤ ++ <25%) | ++ (5% ≤ ++ <25%) | + (LOQ ≤ + <5%) | + (LOQ ≤ + <5%) | + (LOQ ≤ + <5%) | ++ (5% ≤ ++ <25%) | + (LOQ ≤ + <5%) | ++++ (50% ≤ ++++) | – |
| C[C@@H]1OCc2c(Cl)cccc2[C@@H]1N.Cl [Example 86] | 10 to 30 | + (LOQ ≤ + <5%) | ++ (5% ≤ ++ <25%) | ++ (5% ≤ ++ <25%) | ++ (5% ≤ ++ <25%) | + (LOQ ≤ + <5%) | + (LOQ ≤ + <5%) | ++ (5% ≤ ++ <25%) | + (LOQ ≤ + <5%) | +++ (25% ≤ +++ <50%) | – |

Source: patent US11077090B2, “Compounds and compositions and uses thereof” (Sunovion Pharmaceuticals Inc., priority 2016, dated 2021)
